Laboratory results published in US12275731B2, “Azaindole inhibitors of wild-type and mutant forms of LRRK2” (DANA-FARBER CANCER INSTITUTE, INC., priority 2018, dated 2025).

How the values were obtained:
Assay in all cases: KinomeScan profiling
Assay type in all cases: binding
FES = FES (Homo sapiens, UniProt P07332); details: read-out: % control
Summary of the method: (§1)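 Percent-of-control values derive from RLU, calculated as (test − positive)/(negative − positive) × 100, where DMSO defines 100% and a positive control compound defines 0%. Each compound was tested at 1 μM in the 468-kinase panel; sub-35% readings indicate activity.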

PIK3CA = biological target: T1, PIK3CA (Homo sapiens, UniProt P42336); details: read-out: % control
T1 construct: purchased KinomeScan® (panel service)
T1 sequence (P42336 whole entry): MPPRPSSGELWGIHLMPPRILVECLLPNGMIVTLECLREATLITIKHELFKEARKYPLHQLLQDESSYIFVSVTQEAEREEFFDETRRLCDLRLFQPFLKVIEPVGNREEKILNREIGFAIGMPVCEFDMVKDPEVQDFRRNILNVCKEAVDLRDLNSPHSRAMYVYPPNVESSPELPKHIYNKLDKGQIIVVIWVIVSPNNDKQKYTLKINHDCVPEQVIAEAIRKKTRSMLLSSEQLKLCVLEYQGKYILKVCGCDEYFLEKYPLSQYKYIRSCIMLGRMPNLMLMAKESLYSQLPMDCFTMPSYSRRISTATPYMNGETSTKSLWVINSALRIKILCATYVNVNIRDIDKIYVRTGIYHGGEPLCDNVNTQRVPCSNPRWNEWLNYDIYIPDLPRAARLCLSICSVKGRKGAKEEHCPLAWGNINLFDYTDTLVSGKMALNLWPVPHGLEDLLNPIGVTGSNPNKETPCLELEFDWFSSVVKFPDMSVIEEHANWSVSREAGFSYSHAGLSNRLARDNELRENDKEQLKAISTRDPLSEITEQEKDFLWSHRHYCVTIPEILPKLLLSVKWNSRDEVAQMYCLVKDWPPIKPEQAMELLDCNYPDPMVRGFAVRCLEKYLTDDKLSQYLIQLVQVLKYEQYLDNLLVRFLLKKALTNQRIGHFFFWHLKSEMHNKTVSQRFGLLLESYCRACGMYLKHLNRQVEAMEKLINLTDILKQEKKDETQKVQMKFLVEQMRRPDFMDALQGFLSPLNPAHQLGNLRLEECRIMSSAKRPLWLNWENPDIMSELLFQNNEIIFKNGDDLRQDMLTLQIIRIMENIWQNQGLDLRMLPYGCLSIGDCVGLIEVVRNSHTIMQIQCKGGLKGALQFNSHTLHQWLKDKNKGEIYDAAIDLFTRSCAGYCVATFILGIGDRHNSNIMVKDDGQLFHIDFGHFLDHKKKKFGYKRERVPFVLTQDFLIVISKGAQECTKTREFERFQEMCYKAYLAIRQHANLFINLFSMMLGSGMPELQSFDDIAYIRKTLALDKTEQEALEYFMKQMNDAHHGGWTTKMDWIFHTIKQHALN
Summary of the method: as §1

EIF2AK1 = EIF2AK1 (Homo sapiens, UniProt Q9BQI3); details: EIF2AK1, 1 μM; read-out: % control
Sequence of EIF2AK1 (Q9BQI3 whole entry): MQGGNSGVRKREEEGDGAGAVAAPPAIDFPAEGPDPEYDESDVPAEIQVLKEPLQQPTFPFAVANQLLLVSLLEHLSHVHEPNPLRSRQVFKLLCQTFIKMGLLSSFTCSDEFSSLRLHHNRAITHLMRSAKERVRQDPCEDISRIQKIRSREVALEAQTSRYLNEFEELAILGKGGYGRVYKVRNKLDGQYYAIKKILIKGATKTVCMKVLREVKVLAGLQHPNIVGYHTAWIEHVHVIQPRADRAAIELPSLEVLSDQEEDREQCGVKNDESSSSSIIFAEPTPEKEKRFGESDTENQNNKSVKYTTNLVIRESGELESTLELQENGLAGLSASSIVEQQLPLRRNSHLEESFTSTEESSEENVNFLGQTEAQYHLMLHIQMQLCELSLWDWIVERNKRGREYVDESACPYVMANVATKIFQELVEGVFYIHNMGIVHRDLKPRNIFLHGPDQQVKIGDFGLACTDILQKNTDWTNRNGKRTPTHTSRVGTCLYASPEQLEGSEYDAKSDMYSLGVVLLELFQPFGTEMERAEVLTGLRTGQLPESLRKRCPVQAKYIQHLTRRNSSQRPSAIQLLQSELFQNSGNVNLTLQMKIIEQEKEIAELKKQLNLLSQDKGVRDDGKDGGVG
Summary of the method: as §1

PYK2 = PYK2 (Homo sapiens, UniProt Q14289); details: PYK2, 1 μM; read-out: % control
Sequence of PYK2 (Q14289 whole entry): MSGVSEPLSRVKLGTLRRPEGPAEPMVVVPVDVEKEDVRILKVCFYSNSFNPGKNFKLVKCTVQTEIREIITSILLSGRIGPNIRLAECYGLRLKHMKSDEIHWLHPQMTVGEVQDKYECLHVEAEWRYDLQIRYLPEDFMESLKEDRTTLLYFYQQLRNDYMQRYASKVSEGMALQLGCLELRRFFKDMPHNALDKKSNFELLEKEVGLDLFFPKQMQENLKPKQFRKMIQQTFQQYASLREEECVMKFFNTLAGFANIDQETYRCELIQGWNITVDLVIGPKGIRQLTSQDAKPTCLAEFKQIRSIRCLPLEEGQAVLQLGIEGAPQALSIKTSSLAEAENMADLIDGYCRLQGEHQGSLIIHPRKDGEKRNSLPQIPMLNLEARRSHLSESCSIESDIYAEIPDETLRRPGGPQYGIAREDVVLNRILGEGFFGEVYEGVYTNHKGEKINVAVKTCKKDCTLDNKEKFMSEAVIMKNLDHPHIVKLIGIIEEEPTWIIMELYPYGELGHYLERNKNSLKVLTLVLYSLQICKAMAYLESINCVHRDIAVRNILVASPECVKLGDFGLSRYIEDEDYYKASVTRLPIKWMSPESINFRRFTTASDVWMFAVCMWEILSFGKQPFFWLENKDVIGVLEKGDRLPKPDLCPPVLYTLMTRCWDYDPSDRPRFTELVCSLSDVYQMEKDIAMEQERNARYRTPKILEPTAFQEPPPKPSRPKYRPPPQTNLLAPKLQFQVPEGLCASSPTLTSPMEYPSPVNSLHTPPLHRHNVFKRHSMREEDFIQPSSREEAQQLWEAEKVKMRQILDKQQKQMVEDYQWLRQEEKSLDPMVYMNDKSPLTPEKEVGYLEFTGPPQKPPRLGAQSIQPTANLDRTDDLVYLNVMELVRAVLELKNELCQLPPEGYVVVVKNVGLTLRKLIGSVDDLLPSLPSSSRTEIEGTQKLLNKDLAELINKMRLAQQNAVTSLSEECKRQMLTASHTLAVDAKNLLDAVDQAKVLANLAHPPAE
Summary of the method: as §1

FLT3(D835Y) = biological target: T2, FLT3(D835Y) (Homo sapiens, UniProt P36888, D835Y); details: read-out: % control
T2 sequence (P36888 27-993 D835Y): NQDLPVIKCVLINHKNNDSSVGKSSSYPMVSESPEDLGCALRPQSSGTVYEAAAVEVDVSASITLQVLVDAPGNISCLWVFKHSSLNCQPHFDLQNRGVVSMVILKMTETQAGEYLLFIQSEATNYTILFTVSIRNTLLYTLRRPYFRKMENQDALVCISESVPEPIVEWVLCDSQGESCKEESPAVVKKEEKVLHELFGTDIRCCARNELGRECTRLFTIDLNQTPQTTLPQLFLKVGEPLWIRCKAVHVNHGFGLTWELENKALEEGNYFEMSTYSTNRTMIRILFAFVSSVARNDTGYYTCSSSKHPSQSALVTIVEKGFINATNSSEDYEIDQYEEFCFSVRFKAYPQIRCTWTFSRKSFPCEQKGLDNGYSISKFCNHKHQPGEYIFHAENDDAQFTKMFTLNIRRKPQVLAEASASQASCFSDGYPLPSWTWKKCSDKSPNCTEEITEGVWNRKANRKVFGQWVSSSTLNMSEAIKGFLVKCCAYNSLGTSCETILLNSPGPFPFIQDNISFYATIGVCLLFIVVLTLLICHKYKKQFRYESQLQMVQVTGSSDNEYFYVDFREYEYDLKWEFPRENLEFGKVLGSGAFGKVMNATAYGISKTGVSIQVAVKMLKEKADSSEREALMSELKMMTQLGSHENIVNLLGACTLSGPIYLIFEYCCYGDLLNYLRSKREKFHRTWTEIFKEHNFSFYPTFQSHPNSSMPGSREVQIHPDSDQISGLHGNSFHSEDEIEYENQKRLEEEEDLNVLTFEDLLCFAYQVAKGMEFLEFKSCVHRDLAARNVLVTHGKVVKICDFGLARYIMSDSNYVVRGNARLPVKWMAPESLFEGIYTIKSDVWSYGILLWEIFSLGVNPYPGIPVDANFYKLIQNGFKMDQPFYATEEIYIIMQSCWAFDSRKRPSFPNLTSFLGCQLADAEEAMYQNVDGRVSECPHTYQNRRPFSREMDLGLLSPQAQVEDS
Summary of the method: as §1

DMPK = biological target: T3, DMPK (Homo sapiens, UniProt Q09013); details: read-out: % control
T3 sequence (Q09013 1-629): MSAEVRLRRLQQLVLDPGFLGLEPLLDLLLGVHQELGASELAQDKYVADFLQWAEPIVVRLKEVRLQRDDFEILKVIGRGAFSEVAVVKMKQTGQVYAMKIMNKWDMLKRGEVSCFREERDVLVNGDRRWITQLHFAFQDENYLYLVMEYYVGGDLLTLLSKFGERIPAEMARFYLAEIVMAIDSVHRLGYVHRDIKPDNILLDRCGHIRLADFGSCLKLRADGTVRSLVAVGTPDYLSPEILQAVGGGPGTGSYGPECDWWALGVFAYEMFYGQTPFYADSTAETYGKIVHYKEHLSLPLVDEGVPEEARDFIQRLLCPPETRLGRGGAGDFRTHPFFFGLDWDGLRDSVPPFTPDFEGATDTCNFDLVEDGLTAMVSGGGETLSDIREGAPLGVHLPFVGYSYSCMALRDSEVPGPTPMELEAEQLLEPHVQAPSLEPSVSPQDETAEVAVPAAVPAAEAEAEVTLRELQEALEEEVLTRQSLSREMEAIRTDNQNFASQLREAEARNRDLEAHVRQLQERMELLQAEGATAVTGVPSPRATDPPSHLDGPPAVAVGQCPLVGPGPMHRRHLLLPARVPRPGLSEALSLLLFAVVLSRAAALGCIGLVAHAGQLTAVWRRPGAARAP
Summary of the method: as §1

PRKCE = biological target: T4, PRKCE (Homo sapiens, UniProt Q02156); details: read-out: % control
T4 sequence (Q02156 1-737): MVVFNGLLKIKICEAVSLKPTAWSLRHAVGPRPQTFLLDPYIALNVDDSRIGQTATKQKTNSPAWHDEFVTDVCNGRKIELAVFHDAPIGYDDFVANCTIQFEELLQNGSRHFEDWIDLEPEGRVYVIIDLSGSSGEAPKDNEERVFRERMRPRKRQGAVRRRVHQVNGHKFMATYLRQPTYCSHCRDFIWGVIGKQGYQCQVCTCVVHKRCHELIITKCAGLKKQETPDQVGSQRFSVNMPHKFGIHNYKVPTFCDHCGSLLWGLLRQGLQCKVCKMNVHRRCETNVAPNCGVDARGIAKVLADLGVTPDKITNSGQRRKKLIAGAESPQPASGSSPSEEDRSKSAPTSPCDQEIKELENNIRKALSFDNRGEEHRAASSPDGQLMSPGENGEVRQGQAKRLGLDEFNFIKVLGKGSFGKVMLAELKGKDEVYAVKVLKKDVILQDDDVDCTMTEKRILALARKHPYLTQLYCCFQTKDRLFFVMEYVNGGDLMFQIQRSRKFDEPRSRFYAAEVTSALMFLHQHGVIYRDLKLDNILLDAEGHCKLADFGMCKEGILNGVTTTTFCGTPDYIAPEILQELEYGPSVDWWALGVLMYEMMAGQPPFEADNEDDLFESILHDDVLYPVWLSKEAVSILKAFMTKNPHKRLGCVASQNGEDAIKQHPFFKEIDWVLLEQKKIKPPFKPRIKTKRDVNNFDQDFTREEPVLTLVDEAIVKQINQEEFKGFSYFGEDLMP
Summary of the method: as §1

MET(M1250T) = MET(M1250T) (Homo sapiens, UniProt P08581, M1250T); details: read-out: % control
Sequence of MET(M1250T) (P08581 25-1390 M1250T): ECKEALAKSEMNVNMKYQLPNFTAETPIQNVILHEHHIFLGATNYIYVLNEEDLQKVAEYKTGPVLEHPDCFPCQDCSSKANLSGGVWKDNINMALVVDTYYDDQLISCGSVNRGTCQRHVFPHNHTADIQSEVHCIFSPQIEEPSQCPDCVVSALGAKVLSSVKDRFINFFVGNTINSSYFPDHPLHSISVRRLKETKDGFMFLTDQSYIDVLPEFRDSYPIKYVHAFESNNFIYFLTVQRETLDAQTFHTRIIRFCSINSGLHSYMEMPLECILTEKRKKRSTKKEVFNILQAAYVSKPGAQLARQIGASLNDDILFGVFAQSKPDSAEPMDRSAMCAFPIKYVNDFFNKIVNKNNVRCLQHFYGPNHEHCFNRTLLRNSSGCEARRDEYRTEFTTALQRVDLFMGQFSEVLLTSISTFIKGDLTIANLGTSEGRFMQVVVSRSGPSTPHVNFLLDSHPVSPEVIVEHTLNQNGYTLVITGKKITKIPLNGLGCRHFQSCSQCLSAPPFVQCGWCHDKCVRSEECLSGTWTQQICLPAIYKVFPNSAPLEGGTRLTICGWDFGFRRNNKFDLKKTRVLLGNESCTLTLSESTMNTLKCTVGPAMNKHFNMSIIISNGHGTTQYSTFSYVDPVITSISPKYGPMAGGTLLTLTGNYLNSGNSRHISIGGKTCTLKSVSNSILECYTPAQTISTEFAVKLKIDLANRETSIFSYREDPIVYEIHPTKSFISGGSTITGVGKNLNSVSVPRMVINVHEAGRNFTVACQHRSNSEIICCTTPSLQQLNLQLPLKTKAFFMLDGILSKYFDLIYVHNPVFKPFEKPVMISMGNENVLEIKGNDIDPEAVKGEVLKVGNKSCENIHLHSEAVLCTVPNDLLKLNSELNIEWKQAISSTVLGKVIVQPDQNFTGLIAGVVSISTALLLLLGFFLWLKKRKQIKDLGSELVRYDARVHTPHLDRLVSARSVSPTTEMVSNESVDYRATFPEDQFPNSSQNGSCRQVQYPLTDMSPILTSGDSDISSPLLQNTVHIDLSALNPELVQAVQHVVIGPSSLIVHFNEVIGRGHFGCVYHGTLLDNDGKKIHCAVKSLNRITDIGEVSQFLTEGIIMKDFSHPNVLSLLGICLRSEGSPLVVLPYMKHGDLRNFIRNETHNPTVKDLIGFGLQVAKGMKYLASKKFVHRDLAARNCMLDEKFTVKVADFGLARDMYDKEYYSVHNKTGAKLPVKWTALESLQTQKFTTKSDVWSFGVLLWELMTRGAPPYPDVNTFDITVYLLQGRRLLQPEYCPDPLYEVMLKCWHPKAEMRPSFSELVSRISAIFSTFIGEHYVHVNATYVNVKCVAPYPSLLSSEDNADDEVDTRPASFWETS
Summary of the method: as §1

Sequence of FES (P07332 whole entry): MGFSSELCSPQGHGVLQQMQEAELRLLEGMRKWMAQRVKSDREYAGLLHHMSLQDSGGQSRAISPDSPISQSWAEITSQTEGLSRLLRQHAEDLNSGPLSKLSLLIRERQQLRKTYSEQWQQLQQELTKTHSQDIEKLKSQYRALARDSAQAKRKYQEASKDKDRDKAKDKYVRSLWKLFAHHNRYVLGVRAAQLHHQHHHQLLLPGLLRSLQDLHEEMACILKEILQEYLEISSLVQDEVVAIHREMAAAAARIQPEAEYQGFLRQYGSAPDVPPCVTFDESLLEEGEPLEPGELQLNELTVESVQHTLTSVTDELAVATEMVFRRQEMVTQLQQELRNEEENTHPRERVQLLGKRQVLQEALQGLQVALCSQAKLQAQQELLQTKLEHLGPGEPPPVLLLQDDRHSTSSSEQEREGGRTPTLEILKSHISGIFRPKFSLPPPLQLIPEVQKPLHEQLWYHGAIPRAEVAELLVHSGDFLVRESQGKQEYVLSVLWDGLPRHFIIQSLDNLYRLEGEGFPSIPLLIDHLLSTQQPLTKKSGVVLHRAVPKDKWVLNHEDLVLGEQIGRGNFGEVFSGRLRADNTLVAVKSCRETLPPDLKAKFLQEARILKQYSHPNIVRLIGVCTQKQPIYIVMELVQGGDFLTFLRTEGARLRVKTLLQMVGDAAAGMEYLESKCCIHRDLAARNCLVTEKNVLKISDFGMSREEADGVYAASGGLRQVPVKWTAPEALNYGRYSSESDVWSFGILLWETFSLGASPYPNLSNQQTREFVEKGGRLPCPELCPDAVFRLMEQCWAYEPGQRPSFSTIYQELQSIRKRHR

SMILES	remaining binding at 1 µM (FES)	remaining binding at 1 µM (PIK3CA)	remaining binding at 1 µM (EIF2AK1)	remaining binding at 1 µM (PYK2)	remaining binding at 1 µM (FLT3(D835Y))	remaining binding at 1 µM (DMPK)	remaining binding at 1 µM (PRKCE)	remaining binding at 1 µM (MET(M1250T))
CNc1c(-c2cnn([C@H]3CCN(C(C)=O)C[C@@H]3F)c2)cnc2[nH]cc(Cl)c12 [Compound 77, 1-((3S,4S)-4-(4-(3-chloro-4-(methylamino)-1H-pyrrolo[2,3-b]pyridin-5-yl)-1H-pyrazol-1-yl)-3-fluoropiperidin-1-yl)ethan-1-one]	95%	100%	100%	89%	9.7%	36%	51%	49%
CNc1c(-c2ccc(C(=O)N3CCC(N4CCOCC4)CC3)cc2)cnc2[nH]cc(Cl)c12 [Compound 96, (4-(3-chloro-4-(methylamino)-1H-pyrrolo[2,3-b]pyridin-5-yl)phenyl)(4-morpholinopiperidin-1-yl)methanone]	95%	100%	100%	92%	11%	36%	66%	78%
O=C(c1ccc(-c2cnc3[nH]cc(Cl)c3c2NC2CCCC2)cc1)N1CCC(N2CCOCC2)CC1 [Compound 101, (4-(3-chloro-4-(cyclopentylamino)-1H-pyrrolo[2,3-b]pyridin-5-yl)phenyl)(4-morpholinopiperidin-1-yl)methanone]	72%	99%	100%	78%	33%	52%	70%	23%
